Patent publication US20080045495A1, “Treatment of Patients with Cystic Disease by Alteration of Fibrocystin Proteolysis” (BOARD OF REGENTS, THE UNIVERSITY OF TEXAS SYSTEM, priority 2006, published 2008)

Key:
[1] = tested on: fibrocystin cleavage in HEK-293 cells; test: Immunoblot (anti-V5) of fibrocystin proteolysis in HEK-293 cells transfected with pFC-V5; type: cell-based, human
Method: (§1) FIG. 4 A is an image of a gel illustrating mIMCD3/FC cells were grown for 4 days and incubated with 0.1 μM thapsigargin (lane 2), 5 mM caffeine (lane 3), 75 μM dantrolene (lane 5), 200 μM ruthenium red (lane 7), or no additions (lanes 1, 4 and 6). After 2 hours, media were replaced with media lacking serum but containing the same supplements, and, in addition, 10 nM mifeprisone. Cell lysates were prepared after 24 hours and analyzed by immunoblotting using anti-V5 antibody. FIG. 4B is a graph of mIMCD-3 cells were transfected with 0.2 μg pG5-luc and either 0.2 μg pFC-GV or 0.2 μg pLDLR-GV. After 24 hours, cells were incubated in serum-free media in the presence or absence of 75 μM dantrolene. Relative luciferase activity was determined after 48 h. Data presented are mean ±SE of three separate transfections. The fibrocystin/Gal4-VP16 fusion protein is shown schematically below. Shaded box indicates the transmembrane segment; filled boxes indicate the N-terminal signal sequence and the C-terminal Gal4-VP16 fusion protein. FIG. 4C is an image of a gel illustrating HEK-293 cells transfected with 6 μg pFC-V5, and 8 hours later incubated in serum-free media containing 1-8 mM caffeine, 0.5 μM calphostin, or no additions. Cells were lysed after 16 h, and extracts were analyzed by immunoblotting using anti-V5 antibody. FIG. 4D is a graph of HEK-293 cells transfected with 0.2 μg pFC-GV and 0.2 μg pG5-luc. After 24 hours, cells were incubated in serum-free media containing 5 mM caffeine or no additions. Luciferase activity was measured after 12 hours. Data presented are mean ±SE of three separate transfections. FIG. 4E is an image of a gel illustrating HEK-293 cells stably expressing the m3 muscarinic receptor (lanes 1-4) and untransfected HEK-293 cells (lanes 5-8) were transfected with 6 μg pFC-V5. […] Cells were lysed after 16 hours, and extracts were analyzed by immunoblotting using anti-V5 antibody.
FIG. 5A is an image of a gel that illustrates HEK-293 cells were transfected with 6 μg pFC-V5. […] Fourteen hours later, cellular proteins were extracted and analyzed by immunoblotting using anti-V5 antibody. FIG. 5B is an image of a gel mIMCD3/FC cells were grown for 4 days, and expression of fibrocystin was induced by addition of 10 nM mifepristone. After 24 hours, media were supplemented with 0.1, 0.5, or 1 μM calphostin C. Thirty hours later, cells were harvested, and proteins were analyzed by immunoblotting using anti-V5 antibody. FIG. 5C is an image of a gel illustrating HEK-293 cells were transfected with 3 μg pFC-V5 and either 3 μg of the empty vector pEF-neo (lanes 1 and 3) or 3 μg pEF-PKCαA/E (lanes 2 and 4). After 12 hours media were changed to media containing 10% FCS (lanes 1 and 2) or 0.2% BSA (lanes 3 and 4). Forty-eight hours later, cells were harvested, and proteins were subjected to immunoblotting using anti-V5 antibody. FIG. 5D is a plot illustrating HEK-293 cells transfected with 0.2 μg pG5-luc and 0.2 μg pFC-GV, pLDLR-GV and/or pEF-PKCαA/E. After 16 hours, media were changed to serum-free media containing 100 nM PMA or 500 μM Br-cAMP. Twenty-four hours later, cells were harvested, and relative luciferase activities were determined. Data are the mean ±SE of three independent transfections.

[2] = tested on: fibrocystin cleavage in mIMCD3/FC cells; test: Immunoblot (anti-V5) of fibrocystin proteolytic fragments in mIMCD3/FC cells; type: cell-based, human; details: FIG. 4A
Method: Cell Culture, Transfection and Generation of Stable Cell Lines—mIMCD-3 cells were plated at a density of 500,000 cells/100 mm dish, and 24 hours and 48 hours later the cells were transfected with 2 μg of pFC-V5 using Effectene (Qiagen, Valencia, Calif.). Cells were incubated for an additional 72 hours and lysed in 100 μl buffer containing Tris-buffered saline, 0.5% Triton X-100, protease inhibitor cocktail (Hoffmann-La Roche Inc., Indianapolis, Ind.). Twenty μl of the lysates were analyzed by SDS-PAGE, and immunoblot analysis was performed using HRP-conjugated anti-V5 as described previously (Hiesberger, 2005). mIMCD3/FC and mIMCD3/EGFP cell lines with inducible expression of fibrocystin and EGFP, respectively, were produced by transfecting mIMCD-3 cells with 1.5 μg pSwitch and either 1.5 μg pGeneFC or 1.5 μg pGeneEGFP. Stable transfectants were isolated after 14 days of growth in media containing hygromycin (350 μg/ml) and zeocin (300 μg/ml). To test for inducible expression, cells derived from individual clones were treated with mifepristone (10 nM) for 48 h or left untreated, and proteins were analyzed by immunoblotting using HRP-conjugated anti-FLAG. HEK-293 cells stably transfected with the muscarinic acetylcholine receptor M3 were a generous gift from Trevor Shuttleworth (University of Rochester Medical center) (Yang, 1995).
To further investigate the proteolytic cleavage of fibrocystin, mIMCD3/FC cells were generated, in which the expression of recombinant human fibrocystin can be induced by treatment with mifepristone.
FIG. 4 A is an image of a gel illustrating mIMCD3/FC cells were grown for 4 days and incubated with 0.1 μM thapsigargin (lane 2), 5 mM caffeine (lane 3), 75 μM dantrolene (lane 5), 200 μM ruthenium red (lane 7), or no additions (lanes 1, 4 and 6). After 2 hours, media were replaced with media lacking serum but containing the same supplements, and, in addition, 10 nM mifeprisone. Cell lysates were prepared after 24 hours and analyzed by immunoblotting using anti-V5 antibody. FIG. 4B is a graph of mIMCD-3 cells were transfected with 0.2 μg pG5-luc and either 0.2 μg pFC-GV or 0.2 μg pLDLR-GV. After 24 hours, cells were incubated in serum-free media in the presence or absence of 75 μM dantrolene. Relative luciferase activity was determined after 48 h. Data presented are mean ±SE of three separate transfections. The fibrocystin/Gal4-VP16 fusion protein is shown schematically below. […] Cells were lysed after 16 h, and extracts were analyzed by immunoblotting using anti-V5 antibody. […] Luciferase activity was measured after 12 hours. […] Cells were lysed after 16 hours, and extracts were analyzed by immunoblotting using anti-V5 antibody. […]

[3] = tested on: fibrocystin cleavage in HEK-293 cells; test: Luciferase reporter assay of fibrocystin cleavage (pFC-GV / pG5-luc) in HEK-293 cells; type: cell-based, human; details: 5 mM caffeine versus vehicle, HEK-293, 12 hours, FIG. 4D
Method: (§2) Reporter Gene Assays—mIMCD-3 cells, HEK-293 cells, or HeLa cells were plated in 6-well dishes (3×10^5 cells/well) and cotransfected with 0.05 μg phRL-TK(Int−) encoding Renilla luciferase (Promega, Madison, Wis.), 0.1 μg Photinus luciferase reporter plasmids, and 0.01-0.3 μg effector plasmids. Luciferase assays were performed as described previously (Hiesberger, 2004). Relative luciferase activity was calculated as the ratio of Photinus and Renilla luciferase.
as §1
To quantitatively measure fibrocystin cleavage, a luciferase assay was developed that was similar to the ones employed to quantify the proteolytic cleavage of amyloid precursor protein (APP) and low density lipoprotein receptor related protein-1 (LRP1) (Cao, 2001; May, 2003). A plasmid (FC-GV) encoding the synthetic transcription factor Gal4-VP16 fused to the C-terminus of fibrocystin was generated. Proteolytic cleavage of the fibrocystin fusion protein releases Gal4-VP16, which translocates to the nucleus and activates a Gal4-responsive luciferase reporter gene (pG5-luc). Therefore, luciferase expression correlates with fibrocystin cleavage.
To quantify fibrocystin proteolysis in response to intracellular Ca^2+ release, the luciferase reporter assay was employed. HEK-293 cells were cotransfected with the plasmids pFC-GV and pG5-luc and incubated with either 5 mM caffeine or vehicle (as a control).
FIG. 5A is an image of a gel that illustrates HEK-293 cells were transfected with 6 μg pFC-V5.

[4] = tested on: fibrocystin cleavage in HEK-293(m3) cells
Method: FIG. 4 A is an image of a gel illustrating mIMCD3/FC cells were grown for 4 days and incubated with 0.1 μM thapsigargin (lane 2), 5 mM caffeine (lane 3), 75 μM dantrolene (lane 5), 200 μM ruthenium red (lane 7), or no additions (lanes 1, 4 and 6). After 2 hours, media were replaced with media lacking serum but containing the same supplements, and, in addition, 10 nM mifeprisone. Cell lysates were prepared after 24 hours and analyzed by immunoblotting using anti-V5 antibody. FIG. 4B is a graph of mIMCD-3 cells were transfected with 0.2 μg pG5-luc and either 0.2 μg pFC-GV or 0.2 μg pLDLR-GV. After 24 hours, cells were incubated in serum-free media in the presence or absence of 75 μM dantrolene. Relative luciferase activity was determined after 48 h. Data presented are mean ±SE of three separate transfections. The fibrocystin/Gal4-VP16 fusion protein is shown schematically below. Shaded box indicates the transmembrane segment; filled boxes indicate the N-terminal signal sequence and the C-terminal Gal4-VP16 fusion protein. […] Cells were lysed after 16 h, and extracts were analyzed by immunoblotting using anti-V5 antibody. […] Luciferase activity was measured after 12 hours. […] Cells were lysed after 16 hours, and extracts were analyzed by immunoblotting using anti-V5 antibody.

[5] = tested on: fibrocystin cleavage in mIMCD-3 cells; test: Luciferase reporter assay of fibrocystin cleavage (pFC-GV / pG5-luc) in mIMCD-3 cells; type: cell-based, human; details: 75 μM dantrolene, serum-free media, luciferase after 48 h, FIG. 4B
Method: as §2
FIG. 4 A is an image of a gel illustrating mIMCD3/FC cells were grown for 4 days and incubated with 0.1 μM thapsigargin (lane 2), 5 mM caffeine (lane 3), 75 μM dantrolene (lane 5), 200 μM ruthenium red (lane 7), or no additions (lanes 1, 4 and 6). […] Cell lysates were prepared after 24 hours and analyzed by immunoblotting using anti-V5 antibody. […] Relative luciferase activity was determined after 48 h. […] Cells were lysed after 16 h, and extracts were analyzed by immunoblotting using anti-V5 antibody. […] Luciferase activity was measured after 12 hours. […] Cells were lysed after 16 hours, and extracts were analyzed by immunoblotting using anti-V5 antibody.
To quantitatively measure fibrocystin cleavage, a luciferase assay was developed that was similar to the ones employed to quantify the proteolytic cleavage of amyloid precursor protein (APP) and low density lipoprotein receptor related protein-1 (LRP1) (Cao, 2001; May, 2003). […]

Row | Compound | fibrocystin proteolysis ([1]; 5 mM caffeine, untransfected HEK-293 cells, 16 hours, FIG. 4E) | proteolysis of fibrocystin ([1]; 1-8 mM caffeine, serum-free media, HEK-293, lysed after 16 h, FIG. 4C) | generation of FCA ([2]; pretreatment with 5 mM caffeine, lysates after 24 hours) | increase of luciferase activity [3] [fold] | fibrocystin proteolysis [4] | increase in luciferase activity (FC-GV versus LDLR-GV) [5] | formation of FCA ([2]; 75 μM dantrolene)
1 | Cn1c(=O)c2c(ncn2C)n(C)c1=O [caffeine] | triggered fibrocystin proteolysis | induced dose-dependent proteolysis | prevented | 10 | triggered fibrocystin proteolysis |  | 
2 | O=C1CN(/N=C/c2ccc(-c3ccc([N+](=O)[O-])cc3)o2)C(O)=N1 [dantrolene] |  |  |  |  |  | abolished | abolished
